Measurements taken from patent US4754059A, “Omega cycloalkyl prostaglandins” (G. D. Searle & Co., priority 1984, dated 1988).

How the values were obtained:
[1] = Diarrheogenic activity in rats; assay type: in vivo, Charles River rats
Experimental: Diarrhea is an undesirable side effect commonly associated with antisecretory and cytoprotective prostaglandins.
Groups of six adult male Charles River rats, weight range 180 to 200 grams, are fasted for 24 hours prior to administering the test substance. The prostaglandin to be tested is administered intragastrically in iso-osmotic phosphate buffer at a volume of 10 ml/kg at doses ranging from 100 to 3000 microgram/kg. Control animals receive only the vehicle. The rats are placed in individual wire mesh cages and the trays lined with brown paper. Diarrhea is assessed at hourly intervals on an all or none basis for up to eight hours after administration of the prostaglandin. Diarrhea is defined as any loose or watery stool. ED50 values are assessed for each hourly diarrheogenic response.

gastric secretions = experiment: Dog gastric antisecretory activity (histamine-stimulated, Thomas-type gastric cannula); assay type: in vivo, beagle dogs; settings: for ED50: Canis lupus familiaris, po, histamine stimulation
Experimental: The standard test used to detect gastric antisecretory activity is described as follows.
Adult female beagle dogs weighing 6-11 kg. are prepared with whole stomach simple Thomas-type gastric cannulas.
Following full recovery from the surgical implantation of the gastric cannula, the dogs are trained to stand quietly, though fully conscious, in Pavlov-type dog restraining slings and are accustomed to intravenous histamine infusion.
Experiments are initiated by depriving dogs of food, but not water, for 18 hours. With an initial infusion of 0.15M sodium chloride, at a constant rate of 6.5 ml/hr, gastric secretions collected in plastic bottles affixed to the cannula, are taken at 15 minute intervals and measured for volume to the nearest 0.1 ml. Following a 30-45 minute basal secretion period, the collection bottles are removed, dosing plugs inserted, and compound administered. A 3.0 ml saline wash follows immediately.
After the end of a 30 minute drug absorption period the stomachs are emptied, collection bottles again attached, and the collections resumed at 30 minute intervals. Simultaneously, the saline infusion is replaced with a continuous intravenous infusion of histamine dihydrochloride in saline at 15 ug/kg/hr for four hours. Gastric samples are analysed for pH and titratable acidity determinations.
An analysis of the data for each measured or derived variable compares observations recorded following treatment with variables obtained for the same group of animals receiving histamine stimulation alone. Three parameters, gastric juice volume (ml/30 min), acid concentration (mEq/L), and total acid output (mEq/30 min) are analyzed individually. The data thus obtained are analyzed using interval-by-interval paired Student's t-test or two-way analysis of variance to achieve an indication of potency and duration of action. Percentage inhibition is calculated using pooled mean values for the four hour treatment period. Duration of activity is defined as the length of time of significant inhibition.

[2] = tested on: lower esophageal sphincter; experiment: Contraction of the lower esophageal sphincter; settings: no method given
[3] = intragastric administration, dog

Row | diarrheogenic properties (in words) [1] | SMILES | antisecretory activity (in words) (gastric secretions) | ED50 (gastric secretions; [3]) [µg/kg] | property of contracting the lower esophageal sphincter [2] | Dog antisecretory activity (in words) (gastric secretions; intragastric administration, dog, doses 0.3 and 1.0)
1 | low | COC(=O)CC/C=C\CC[C@H]1C(=O)C[C@@H](O)[C@@H]1/C=C/CC(C)(O)CCC1CCCC1 (relative stereo) [Example 2] | potent | 0.3 | contracting the lower esophageal sphincter | 
2 |  | COC(=O)CC/C=C\CC[C@H]1C(=O)C[C@@H](O)[C@@H]1/C=C/CC(C)(O)CCC1CC1 (relative stereo) [Example 1] |  | 0.2 |  | 
3 | low | COC(=O)CC/C=C\CC[C@H]1C(=O)C[C@@H](O)[C@@H]1/C=C/CC(C)(O)CCC1CCC1 (relative stereo) [Example 3] | potent |  |  | 
4 |  | COC(=O)CC/C=C\CC[C@H]1C(=O)C[C@@H](O)[C@@H]1/C=C/CC(C)(O)CCC1(C)CC1 (relative stereo) [Example 7, methyl 7-[3α-hydroxy-2β-4-hydroxy-4-methyl-6-(1-methylcyclopropyl)-1-trans-hexenyl-5-oxocyclopentane]-1α-hept-4-cis-enoate] |  | 0.3 |  | 
5 |  | COC(=O)CCC/C=C\C[C@H]1C(=O)C[C@@H](O)[C@@H]1/C=C/CC(C)(O)CCC1CCCC1 (relative stereo) [Compound II, reference compound] |  |  |  | Inactive at 0.3 and 1.0
